Test results as given in PubChem BioAssay AID1845217 (Molecular Pharmacology Branch, DTP, NCI, 2023).
“And” between values parts separate entries of the source, which are not always exact repeats. Equal entries are not always repeated.

Test system: VA-ES-BJ tumor spheroid viability
Test: Anticancer human tumor VA-ES-BJ cell line growth inhibition;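 note: spheroids exposed to compounds for seven days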;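 for viability, T/C: percent of DMSO vehicle control viability so 100% = untreated growth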
Conditions: spheroids with HUVEC and MSC; for viability, T/C: stronger effect = lower value
In short: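 Complex tumor spheroids combined malignant cells with endothelial cells and mesenchymal stem cells. DNA-damaging drugs and DNA repair inhibitors were tested alone and in combination, at half-log dilutions down from clinical Cmax (top 10 microM if Cmax unknown), 0.25% DMSO final.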

[1] = curve of first compound, second compound 1 µM
[2] = curve of first compound, second compound 3.16 µM
[3] = curve of first compound, second compound 10 µM
[4] = curve of first compound, second compound 31.6 µM
[5] = curve of first compound, second compound 100 µM
[6] = second compound 1 µM, first compound 0.0949 µM
[7] = second compound 1 µM, first compound 0.3 µM
[8] = second compound 1 µM, first compound 0.949 µM
[9] = second compound 1 µM, first compound 3 µM
[10] = second compound 3.16 µM, first compound 0.0949 µM
[11] = second compound 3.16 µM, first compound 0.3 µM
[12] = second compound 3.16 µM, first compound 0.949 µM
[13] = second compound 3.16 µM, first compound 3 µM
[14] = second compound 10 µM, first compound 0.0949 µM
[15] = second compound 10 µM, first compound 0.3 µM
[16] = second compound 10 µM, first compound 0.949 µM
[17] = second compound 10 µM, first compound 3 µM
[18] = second compound 31.6 µM, first compound 0.0949 µM
[19] = second compound 31.6 µM, first compound 0.3 µM
[20] = second compound 31.6 µM, first compound 0.949 µM
[21] = second compound 31.6 µM, first compound 3 µM
[22] = second compound 100 µM, first compound 0.0949 µM
[23] = second compound 100 µM, first compound 0.3 µM
[24] = second compound 100 µM, first compound 0.949 µM
[25] = second compound 100 µM, first compound 3 µM

## Cc1cc(C)c(CNC(=O)c2cc(-c3ccc(CN4CCOCC4)cc3)cc3c2cnn3C2CCCC2)c(=O)[nH]1 + COc1cc2c(cc1O)CCNC21CSC2c3c(OC(C)=O)c(C)c4c(c3C(COC1=O)N1C(O)C3Cc5cc(C)c(OC)c(O)c5C(C21)N3C)OCO4
Curve of first compound, second compound 30 pM
  IC50: > 10 µM
Curve of first compound, second compound 94.9 pM
  IC50: > 10 µM
Curve of first compound, second compound 0.0003 µM
  IC50: < 0.0316 µM
Curve of first compound, second compound 0.000949 µM
  IC50: < 0.0316 µM
Curve of first compound, second compound 0.003 µM
  IC50: < 0.0316 µM
Second compound 30 pM, first compound 0.0316 µM
  viability, T/C: 103%
Second compound 30 pM, first compound 0.1 µM
  viability, T/C: 105%
Second compound 30 pM, first compound 0.316 µM
  viability, T/C: 109%
Second compound 30 pM, first compound 1 µM
  viability, T/C: 104%
Second compound 30 pM, first compound 3.16 µM
  viability, T/C: 101%
Second compound 30 pM, first compound 10 µM
  viability, T/C: 96.4%
Second compound 94.9 pM, first compound 0.0316 µM
  viability, T/C: 97.6%
Second compound 94.9 pM, first compound 0.1 µM
  viability, T/C: 101%
Second compound 94.9 pM, first compound 0.316 µM
  viability, T/C: 96.8%
Second compound 94.9 pM, first compound 1 µM
  viability, T/C: 95.2%
Second compound 94.9 pM, first compound 3.16 µM
  viability, T/C: 88.7%
Second compound 94.9 pM, first compound 10 µM
  viability, T/C: 82.6%
Second compound 0.0003 µM, first compound 0.0316 µM
  viability, T/C: 48.5%
Second compound 0.0003 µM, first compound 0.1 µM
  viability, T/C: 48.4%
Second compound 0.0003 µM, first compound 0.316 µM
  viability, T/C: 47.7%
Second compound 0.0003 µM, first compound 1 µM
  viability, T/C: 42.4%
Second compound 0.0003 µM, first compound 3.16 µM
  viability, T/C: 38.6%
Second compound 0.0003 µM, first compound 10 µM
  viability, T/C: 32.6%
Second compound 0.000949 µM, first compound 0.0316 µM
  viability, T/C: 2.91%
Second compound 0.000949 µM, first compound 0.1 µM
  viability, T/C: 3.27%
Second compound 0.000949 µM, first compound 0.316 µM
  viability, T/C: 3.08%
Second compound 0.000949 µM, first compound 1 µM
  viability, T/C: 2.61%
Second compound 0.000949 µM, first compound 3.16 µM
  viability, T/C: 2.08%
Second compound 0.000949 µM, first compound 10 µM
  viability, T/C: 1.68%
Second compound 0.003 µM, first compound 0.0316 µM
  viability, T/C: 0.95%
Second compound 0.003 µM, first compound 0.1 µM
  viability, T/C: 1.8%
Second compound 0.003 µM, first compound 0.316 µM
  viability, T/C: 1.23%
Second compound 0.003 µM, first compound 1 µM
  viability, T/C: 1.96%
Second compound 0.003 µM, first compound 3.16 µM
  viability, T/C: 1.92%
Second compound 0.003 µM, first compound 10 µM
  viability, T/C: 1.57%

## Cc1sc2c(c1C)C(c1ccc(Cl)cc1)=NC(CC(=O)Nc1ccc(O)cc1)c1nnc(C)n1-2 (stereo unspecified) + Cn1nnc2c(C(N)=O)ncn2c1=O
[1]
  IC50: 0.103 µM
[2]
  IC50: 0.0937 µM
[3]
  IC50: 0.0831 µM
[4]
  IC50: 0.0806 µM
[5]
  IC50: 0.0686 µM
Second compound 1 µM, first compound 0.00949 µM
  viability, T/C: 83.5%
Second compound 1 µM, first compound 0.03 µM
  viability, T/C: 69%
[6]
  viability, T/C: 51.6%
[7]
  viability, T/C: 33.5%
[8]
  viability, T/C: 25.9%
[9]
  viability, T/C: 17.1%
Second compound 3.16 µM, first compound 0.00949 µM
  viability, T/C: 81.3%
Second compound 3.16 µM, first compound 0.03 µM
  viability, T/C: 68.3%
[10]
  viability, T/C: 50.7%
[11]
  viability, T/C: 31.1%
[12]
  viability, T/C: 19.9%
[13]
  viability, T/C: 17.7%
Second compound 10 µM, first compound 0.00949 µM
  viability, T/C: 81.2%
Second compound 10 µM, first compound 0.03 µM
  viability, T/C: 65.2%
[14]
  viability, T/C: 49.1%
[15]
  viability, T/C: 30.8%
[16]
  viability, T/C: 24.8%
[17]
  viability, T/C: 15.8%
Second compound 31.6 µM, first compound 0.00949 µM
  viability, T/C: 81.1%
Second compound 31.6 µM, first compound 0.03 µM
  viability, T/C: 61.1%
[18]
  viability, T/C: 51.2%
[19]
  viability, T/C: 31.9%
[20]
  viability, T/C: 21.3%
[21]
  viability, T/C: 12.4%
Second compound 100 µM, first compound 0.00949 µM
  viability, T/C: 91.2%
Second compound 100 µM, first compound 0.03 µM
  viability, T/C: 60.1%
[22]
  viability, T/C: 47.5%
[23]
  viability, T/C: 29.5%
[24]
  viability, T/C: 14.4%
[25]
  viability, T/C: 7.67%

## O=C(c1cc(Cc2n[nH]c(=O)c3ccccc23)ccc1F)N1CCN(C(=O)C2CC2)CC1 + Cn1nnc2c(C(N)=O)ncn2c1=O
[1]
  IC50: > 30 µM
[2]
  IC50: 25.4 µM
[3]
  IC50: 9.76 µM
[4]
  IC50: 3.43 µM
[5]
  IC50: 0.669 µM
[6]
  viability, T/C: 114%
[7]
  viability, T/C: 110%
[8]
  viability, T/C: 111%
[9]
  viability, T/C: 110%
Second compound 1 µM, first compound 9.49 µM
  viability, T/C: 75%
Second compound 1 µM, first compound 30 µM
  viability, T/C: 58.5%
[10]
  viability, T/C: 103%
[11]
  viability, T/C: 110%
[12]
  viability, T/C: 96.8%
[13]
  viability, T/C: 106%
Second compound 3.16 µM, first compound 9.49 µM
  viability, T/C: 78.8%
Second compound 3.16 µM, first compound 30 µM
  viability, T/C: 45.2%
[14]
  viability, T/C: 110%
[15]
  viability, T/C: 113%
[16]
  viability, T/C: 111%
[17]
  viability, T/C: 87.4%
Second compound 10 µM, first compound 9.49 µM
  viability, T/C: 51.9%
Second compound 10 µM, first compound 30 µM
  viability, T/C: 17%
[18]
  viability, T/C: 102%
[19]
  viability, T/C: 112%
[20]
  viability, T/C: 100%
[21]
  viability, T/C: 54%
Second compound 31.6 µM, first compound 9.49 µM
  viability, T/C: 16.8%
Second compound 31.6 µM, first compound 30 µM
  viability, T/C: 8.16%
[22]
  viability, T/C: 77%
[23]
  viability, T/C: 72%
[24]
  viability, T/C: 40%
[25]
  viability, T/C: 15.7%
Second compound 100 µM, first compound 9.49 µM
  viability, T/C: 7.74%
Second compound 100 µM, first compound 30 µM
  viability, T/C: 6.29%

## CC1COCCN1c1cc(-c2ccnn2C)c2ccnc(-c3ccn[nH]3)c2n1 (stereo unspecified)
Compound 0.0316 µM
  viability, T/C: 9.71% and 87.1% and 84.4%
Compound 0.316 µM
  viability, T/C: 9.14% and 23.2% and 30.3%
Compound 1 µM
  viability, T/C: 5.45% and 9.1% and 11%
Compound 3.16 µM
  viability, T/C: 5.18% and 6.34% and 6.93%
Compound 10 µM
  viability, T/C: 4.89% and 6.26% and 6.35%
Curve of compound
  IC50: < 0.0316 µM and 0.11 µM and 0.153 µM
